Measured values from patent US20250034139A1, “AMINE COMPOUNDS HAVING ANTI-INFLAMMATORY, ANTIFUNGAL, ANTIPARASITIC, AND ANTICANCER ACTIVITY” (PHARMA CINQ, LLC, priority 2013, published 2025).
≈ marks a conversion by molar mass, not a printed value. Where two headings read alike, the source gives them in different places.

Legend:
[1] = tested on: Aspergillus fumigatus strains; experiment: Example N: MIC and MFC (CLSI) against Aspergillus fumigatus; type: cell-based; set-up: MIC at 50% inhibition: unit not given here; settings: for MIC50 / MIC: Aspergillus fumigatus; for MIC: read-out: MIC 100%; for MFC: range over Aspergillus fumigatus strains, in 48 hr
Experimental: (§1) The objective of this study was to determine the antifungal activity of eight experimental compounds against a representative panel of fungal isolates, including Candida albicans, C. glabrata, Cryptococcus neoformans, Trichophyton rubrum, Aspergillus fumigatus, and Rhizopus spp. Antifungal activity was measured by minimum inhibitory concentration (MIC) and minimum fungicidal concentration (MFC).
(§2) Three recent clinical strains of each species, taken from the culture collection at the Center for Medical Mycology, Case Western University, were tested.
(§3) Compounds in powder form were dissolved in DMSO. Serial dilutions of each compound were then prepared in RPMI-1640 in a range of […].
(§4) MIC testing was performed according to the CLSI M27-A3 and M38-A2 standards for the susceptibility testing of yeasts and filamentous fungi, respectively (1, 2). Test isolates were subcultured from frozen slants onto potato dextrose agar plates (Trichophyton rubrum was subcultured onto oatmeal plates for conidia production) and checked for purity. Inocula were then prepared in RPMI-1640 (YNB for Cryptococcus) to a concentration of 0.5-2.5×10^3 colony-forming units (CFU)/ml or 0.4-5×10^4 conidia/ml for yeast and filamentous fungi, respectively.
(§5) MFC determinations were performed according to the modifications previously described by Canton et al. and Ghannoum and Isham. (3, 4) Specifically, the total contents of each clear well from the MIC assay were subcultured onto potato dextrose agar. To avoid antifungal carryover, the aliquots were allowed to soak into the agar and then were streaked for isolation once dry, thus removing the cells from the drug source.

[2] = tested on: Trichophyton rubrum strains; experiment: Example N: MIC and MFC (CLSI) against Trichophyton rubrum; type: cell-based; settings: for MIC: read-out: MIC 100%, Range, incubated for 96 hrs, three clinical strains; for MFC: three clinical strains
Experimental: as §1, §2, §3, §4, §5

[3] = tested on: Rhizopus strains; experiment: Example N: MIC and MFC (CLSI) against Rhizopus; type: cell-based, Rhizopus spp.; settings: for MIC50 / MIC: Rhizopus; for MIC: read-out: MIC 100%; for MFC: range over Rhizopus strains, in 48 hr
Experimental: as §1, §2, §3, §4, §5

[4] = tested on: Candida glabrata strains; experiment: Example N: MIC and MFC (CLSI) against Candida glabrata; type: cell-based; settings: Nakaseomyces glabratus; for MIC: read-out: MIC 100%; for MFC: range over Candida glabrata strains, in 48 hr
Experimental: as §1, §2, §3, §4, §5

[5] = tested on: Cryptococcus neoformans (serotype A); experiment: Example L: Cryptococcus neoformans (serotype A) growth inhibition; type: cell-based; settings: Cryptococcus neoformans; for MIC: read-out: MIC, uM (concentration for maximum - 99% of inhibition)
Experimental: Cryptococcus neoformans (serotype A) were plated in 96 well plates with 144 μl/well of 5×10e5 CFU/ml in YPD growth medium. Diluted compounds were then added to each well with concentration ranged from 0.05 to 10 μM as final concentration in duplicates. The plates were inoculated at 30° C. Two readings of OD at 600 nm were measured after 18 hr and […] treatments.
C12-imidazol had relative weak activity against Cryptococcus serotype A at low concentration. Data plotted was based on 26 hour reading because 18 hour reading was too low.
• 1. Pick a single colony of Cryptococcus from the Sabouraud Dextrose agar plate using the inoculum loop and inoculate into a 125 ml flask containing 25 ml of YPD growth medium • 2. Incubate at 30° C. with shaking at 220 rpm for 24 hours with loosen lid to allow air in and facilitates growth. • 3. Examine an aliquot of the culture under a microscope for yeast cell morphology and lack of bacterial contamination. • 4. Dilute the overnight culture with YPD medium at 1:100 dilution and count the number of cells as 8×10^6 cfu/ml. • 5. Make a final concentration of cells suspension at 5×10^5 cfu/ml in YPD medium after the stock culture had been stored at 4° C. for 3 days. • 6. Plate 144 μl/well of 5×10^5 cfu/ml cell suspension on 96-well plates. Part-II: Cryptococcus Growth Inhibition Testing with Compounds • 1. From 10 mM DMSO stock solutions, make serial dilutions of compounds to 0.0013, 0.0025, 0.0125, 0.025, 0.05, 0.125 and 0.25 mM solution • 2. Add 6 ul each of diluted compound solutions per well in duplicates. The final concentrations were 0, 0.05, 0.1, 0.5, 1.0, 2.0, 5.0 and 10 micromolar. • 3. Incubated all plates at 30° C. overnight with 175 rpm shaking. • 4. Read absorbance at OD600 after 18 and 26 hours for each plate. • 5. Calculated the % inhibition and IC50 of each compound against the untreated cell.

[6] = tested on: Candida albicans strains; experiment: Example N: MIC and MFC (CLSI) against Candida albicans; type: cell-based; settings: Candida albicans, three clinical strains; for MIC: read-out: MIC 100%, Range
Experimental: as §1, §2, §3, §4, §5

[7] = tested on: THP-1 cells; experiment: Example C: compound screen, viable THP-1 cell count after 5 hours +/- LPS; type: cell-based, Human; settings: for ability to inactivate pro-inflammatory THP-1 cells, in words (relative to benchmark AC): LPS-treated THP-1 cells
Source text: Background: THP-1 is a human acute myeloid leukemia (AML) cell line that can be induced into a macrophage-like cell with vitamin-D3 (vit-D3). In the macrophage, LPS (lipopolysaccharide; endotoxin) stimulation of toll-like receptor 4 (TLR-4) leads to NF-κB activation and secretion of inflammatory cytokines but also the priming of programmed death pathways through RIP and Caspase 8. The balance of this complex regulatory network is dependent on highly specific kinases, enzymes that require ATP. Disruption of either cytosolic pH or ATP availability/energy level uncouples this control network and the can macrophage shift away from production of inflammatory cytokines towards a programmed death event, which has the net effect of limiting inflammatory damage.

[8] = read-out: IC50, uM (concentration for 50% of inhibition), OD of 26 hour reading, 30° C., XLfit
[9] = OD of 26 hour reading, 30° C., XLfit

SMILES	MIC50 ([1]; 24 h)	MIC ([1]; 24 h)	MIC50 ([1]; 48 h)	MIC ([1]; 48 h)	MFC [1]	MIC [2]	MFC [2]	MIC50 ([3]; 24 h)	MIC ([3]; 24 h)	MIC50 ([3]; 48 h)	MIC ([3]; 48 h)	MFC [3]	MIC50 ([4]; 24 h)	MIC ([4]; 24 h)	MIC50 ([4]; 48 h)	MIC ([4]; 48 h)	MFC [4]	IC50 [5, 8]	MIC [5, 9]	MIC ([6]; 24 hr)	other results
COc1ccc(OCCCCCCCCNc2ncnc3ccccc23)cc1 [AE, N-[8-(4-Methoxyphenoxy)octyl]quinazolin-4-amine]	0.12 to 0.5 µg/mL (≈ 0.316 to 1.32 µM)	0.12 to 1 µg/mL (≈ 0.316 to 2.64 µM)	0.5 to 2 µg/mL (≈ 1.32 to 5.27 µM)	1 to 4 µg/mL (≈ 2.64 to 10.5 µM)	> 64 µg/mL	4 to 16 µg/mL (≈ 10.5 to 42.2 µM)	4 to 16 µg/mL (≈ 10.5 to 42.2 µM)	< 0.12 µg/mL	1 to 2 µg/mL (≈ 2.64 to 5.27 µM)	1 to 2 µg/mL (≈ 2.64 to 5.27 µM)	1 to 4 µg/mL (≈ 2.64 to 10.5 µM)	64 µg/mL (≈ 169 µM)	4 µg/mL (≈ 10.5 µM)	4 µg/mL (≈ 10.5 µM)	4 to 8 µg/mL (≈ 10.5 to 21.1 µM)	4 to 8 µg/mL (≈ 10.5 to 21.1 µM)	16 to 64 µg/mL (≈ 42.2 to 169 µM)	0.54 µM	14.7 µM (≈ 5.59 µg/mL)	0.5 to 4 µg/mL (≈ 1.32 to 10.5 µM)	MIC at 50% inhibition ([1]; 24 hrs): <0.12-0.5; MIC at 100% inhibition ([1]; 24 hrs): <0.12-1; MIC at 50% inhibition ([3]; 24 hrs): < 0.12 µg/mL; MIC ([6]; 48 hr): 4 µg/mL (≈ 10.5 µM); MFC ([6]; 48 hr): 8 to 64 µg/mL (≈ 21.1 to 169 µM)
c1ccc(Oc2cccc(CNc3ccnc4ccccc34)c2)cc1 [AF, N-(3-Phenoxybenzyl)quinolin-4-amine]	–	–	–	–	–	–	–	–	–	–	–	–	–	–	–	–	–	–	–	–	Reduction in viable THP-1 cell count (percent change) from 0 hours, Mean ± SE ([7]; Compound (0.1 μM), No LPS): −8.99 ± 2.00%; Reduction in viable THP-1 cell count (percent change) from 0 hours, Mean ± SE ([7]; Compound (0.1 μM), Plus LPS): −27.32 ± 4.69%; Reduction in viable THP-1 cell count (percent change) from 0 hours, Mean ± SE ([7]; Compound (1.0 μM), No LPS): −6.02 ± 2.31%; Reduction in viable THP-1 cell count (percent change) from 0 hours, Mean ± SE ([7]; Compound (1.0 μM), Plus LPS): −44.82 ± 2.46%; ability to inactivate pro-inflammatory THP-1 cells, in words (relative to benchmark AC) [7]: higher activity than the active benchmark compound AC
CCCCCCOc1cccc(CNc2ncnc3ccccc23)c1 [AK, N-[3-(Hexyloxy)benzyl]quinazolin-4-amine]	–	–	–	–	–	–	–	–	–	–	–	–	–	–	–	–	–	0.25 µM	19.5 µM (≈ 6.54 µg/mL)	–	–
CCCCOCCCCCCCCCCNc1ccnc2ccccc12 [AM, N-(10-Butoxydecyl)quinolin-4-amine]	0.5 to 1 µg/mL (≈ 1.4 to 2.8 µM)	1 to 2 µg/mL (≈ 2.8 to 5.61 µM)	2 to 4 µg/mL (≈ 5.61 to 11.2 µM)	4 µg/mL (≈ 11.2 µM)	4 to 32 µg/mL (≈ 11.2 to 89.7 µM)	0.5 to 4 µg/mL (≈ 1.4 to 11.2 µM)	1 to 4 µg/mL (≈ 2.8 to 11.2 µM)	1 to 2 µg/mL (≈ 2.8 to 5.61 µM)	2 to 4 µg/mL (≈ 5.61 to 11.2 µM)	2 to 4 µg/mL (≈ 5.61 to 11.2 µM)	4 µg/mL (≈ 11.2 µM)	8 to 32 µg/mL (≈ 22.4 to 89.7 µM)	1 to 2 µg/mL (≈ 2.8 to 5.61 µM)	2 to 4 µg/mL (≈ 5.61 to 11.2 µM)	2 to 4 µg/mL (≈ 5.61 to 11.2 µM)	2 to 4 µg/mL (≈ 5.61 to 11.2 µM)	4 to 8 µg/mL (≈ 11.2 to 22.4 µM)	1.57 µM	10.5 µM (≈ 3.75 µg/mL)	2 to 4 µg/mL (≈ 5.61 to 11.2 µM)	cidal activity (MFC within 4 dilutions of the MIC), in words ([1]; 3 strains): cidal against one of the A. fumigatus strains (MRL 28397); Reduction in viable THP-1 cell count (percent change) from 0 hours, Mean ± SE ([7]; Compound (0.1 μM), No LPS): −5.57 ± 2.67%; Reduction in viable THP-1 cell count (percent change) from 0 hours, Mean ± SE ([7]; Compound (0.1 μM), Plus LPS): −19.80 ± 1.96%; Reduction in viable THP-1 cell count (percent change) from 0 hours, Mean ± SE ([7]; Compound (1.0 μM), No LPS): −8.47 ± 3.31%; Reduction in viable THP-1 cell count (percent change) from 0 hours, Mean ± SE ([7]; Compound (1.0 μM), Plus LPS): −44.05 ± 1.38%; ability to inactivate pro-inflammatory THP-1 cells, in words (relative to benchmark AC) [7]: higher activity than the active benchmark compound AC; IC50 ([5]; Macrophage, direct inhibition, values of the earlier study (Table 25), read-out: IC50 value (μM) for inhibition of fungal growth, No macrophages): 1.57 µM; MIC ([6]; 48 hr): 2 to 4 µg/mL (≈ 5.61 to 11.2 µM); MFC ([6]; 48 hr): 4 µg/mL (≈ 11.2 µM)
